Experimental data: patent publication US20230045151A1, “COMPOSITIONS AND METHODS” (MONASH UNIVERSITY, priority 2020, published 2023)

Experiment: Targeted metabolomics for PCS after L-tyrosine feeding
Assay type: in vivo, mouse
Method: Mice were fed with L-tyrosine in drinking water (100 mg/kg/day) for 14 days, after which faeces were collected. BALF samples were collected after HDM immunization as per FIG. 1. […] Data represent samples from one experiment. All data are presented as mean values+/−SEM.
Mice received water as a control or L-tyrosine (reagent grade, ≥98% Sigma-Aldrich, St. Louis, Mo.) resuspended in drinking water under sterile conditions at the concentration of 100 mg/kg/day or 500 mg/kg/day (based on the assumption of a mouse consuming 4 ml of water daily). All mice received the treatment 2 weeks prior and throughout the experiment. […] Control mice received 200 μl of saline. For experiments employing antibiotic treatment, 3-week old mice were treated with a combination enrofloxacin (10 mg/kg/day) and amoxicillin with clavulanic acid (1 mg/kg/day) for one week, followed by one week of only amoxicillin with clavulanic acid (1 mg/kg/day). Then, mice were then put on L-tyrosine diet in drinking water for two weeks followed by HDM exposure as before. […]
25 μL of plasma samples were extracted with 100 μL of chilled methanol containing internal standard (PCS-d4 at 500 ng/ml plasma concentration), shaken on ice for 30 min and centrifuged at 4° C. for 10 min. […] Peak integration and quantitation were performed using Tracefinder 4.1 application (Thermo Scientific).

- PCS concentrations in the faeces (L-tyrosine in drinking water 100 mg/kg/day for 14 days): increase
- PCS concentrations in the airways (BALF) (L-tyrosine in drinking water 100 mg/kg/day, BALF after HDM immunization): increase
SMILES: N[C@@H](Cc1ccc(O)cc1)C(=O)O [L-tyrosine]
